# From publication PMC9238401, “Peptide Conjugates Derived from flg15, Pep13, and PIP1 That Are Active against Plant-Pathogenic Bacteria and Trigger Plant Defense Responses” (Applied and Environmental Microbiology, 2022)
# Non-standard residues stand in square brackets, D forms with d. Residues, ends and D or L forms follow the SMILES beside them. *: point of attachment. Butyryl = CCCC(=O)*
# Legend:
# tobacco leaves = assay: Effect of peptide infiltration on tobacco leaves (phytotoxicity); assay type: in vivo; details: 100 μL infiltrated into mesophyll, lesion diameter 48 h after infiltration, at least three leaves; ± confidence interval (α = 0.05)
# How it was run: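 Phytotoxicity was scored as necrotic lesion diameter 48 h post-infiltration. Each peptide was infiltrated at 50, 150 or 250 μM into fully expanded tobacco leaf mesophyll, on ≥3 leaves from different plants, alongside water and same-molar melittin controls.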
# [1] = tested on: Xanthomonas axonopodis pv. vesicatoria 2133-2; details: TSB, 25°C, 48 h, OD 600 nm (Bioscreen C), three replicates, experiment repeated twice; MIC given as range
# How it was run: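 Bacteria grown 24 h (48 h for Xanthomonas axonopodis, X. fragariae) at 25°C, suspended at 10^8 CFU mL^−1, mixed with peptide dilutions in TSB.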
# horse erythrocytes = details: TRIS buffer pH 7.2, 1 h, 37°C, absorbance 540 nm, relative to melittin 100 μM, ± confidence interval (α = 0.05)
# How it was run: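 Hemolysis measured as absorbance at 540 nm of supernatant, expressed as percent of melittin-lysed control after buffer subtraction. Compound solutions (750, 500, 300, 100 μM, Tris-buffered saline pH 7.2) were combined 1:1 with washed horse red cells for 1 h, 37°C, shaking.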
# [2] = HPLC retention time as indicator of relative hydrophobicity; assay type: physicochemical; details: chromatographic, Kromasil 100 C18 (4.6 mm × 40 mm, 3 μm), linear gradient 2 to 100% B over 12 min, 1 mL/min; A 0.1% aqueous TFA, B 0.1% TFA in CH3CN; used as indicator of relative hydrophobicity
# Description: The parameters related to the structure of the peptide conjugates (sequence, charge, hydrophobic ratio [HR], and HPLC retention time), as well as their physicochemical properties (grand average hydropathicity [GRAVY] and hydrophobic moment [<μH>]) obtained from the online programs ProtParam (Expasy server) and HeliQuest are included in Table 1.
# Peptides were analyzed under standard analytical HPLC conditions. Method A: peptides were analyzed with a Dionex liquid chromatography instrument composed of a UV/Vis Dionex UVD170U detector, a P680 Dionex pump, an ASI-100 Dionex automatic injector, and Chromeleon 6.60 software. Detection was performed at a wavelength of 220 nm. Solvent A was 0.1% aqueous trifluoroacetic acid (TFA), and solvent B was 0.1% TFA in CH3CN. Analyses were carried out with a Kromasil 100 C18 (4.6 mm × 40 mm, 3 μm) column with a linear gradient of 2 to 100% B over 7 min at a flow rate of 1 mL/min. Method B: peptides were analyzed with a 1260 Infinity II liquid chromatography instrument (Agilent Technologies) composed of a diode array detector HS, a quaternary pump VL, a 1260 vial sampler, and OpenLab CDS ChemStation software. Analyses were carried out with a Kromasil 100 C18 (4.6 mm × 40 mm, 3 μm) column with a linear gradient of 2 to 100% B over 12 min at a flow rate of 1 mL/min.
# [3] = tested on: Pseudomonas syringae pv. syringae EPS94; assay: In vitro growth inhibition (MIC); assay type: cell-based; details: TSB, 25°C, 48 h, OD 600 nm (Bioscreen C), three replicates, experiment repeated twice; MIC given as range
# How it was run: (§1)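 Strains were grown 24 h at 25°C on agar, then suspended in sterile water at 10^8 CFU mL^−1 and mixed with peptide dilutions in Trypticase soy broth. Plates were incubated at 25°C with shaking and OD600 read hourly for 48 h. MIC is the lowest concentration with no growth at 48 h.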
# [4] = tested on: Pseudomonas syringae pv. actinidiae Psa3700.1.1; assay: In vitro growth inhibition (MIC); assay type: cell-based; details: TSB, 25°C, 48 h, OD 600 nm (Bioscreen C), three replicates, experiment repeated twice; MIC given as range
# How it was run: as §1
# [5] = tested on: Xanthomonas arboricola pv. pruni CFBP5563; assay: In vitro growth inhibition (MIC); assay type: cell-based; details: TSB, 25°C, 48 h, OD 600 nm (Bioscreen C), three replicates, experiment repeated twice; MIC given as range
# How it was run: as §1
# [6] = tested on: Erwinia amylovora PMV6076; assay: In vitro growth inhibition (MIC); assay type: cell-based; details: TSB, 25°C, 48 h, OD 600 nm (Bioscreen C), three replicates, experiment repeated twice; MIC = lowest concentration with no growth, given as range
# How it was run: as §1
# [7] = tested on: Xanthomonas fragariae Xf349-9A; assay: In vitro growth inhibition (MIC); assay type: cell-based; details: TSB, 25°C, 48 h, OD 600 nm (Bioscreen C), three replicates, experiment repeated twice; MIC given as range
# How it was run: as §1
compound,measurement,setting,value
H-RINSAKDDAAGLQIAKKLFKKILKKL-NH2 [flg15-BP16],Size of the lesions in infiltrated tobacco leaves at 50 μM,tobacco leaves,0.20 ± 0.12 cm
same,Size of the lesions in infiltrated tobacco leaves at 150 μM,tobacco leaves,0.49 ± 0.13 cm
same,Size of the lesions in infiltrated tobacco leaves at 250 μM,tobacco leaves,0.42 ± 0.11 cm
same,"MIC, Xav",[1],1.6 to 3.1 µM
same,Percent hemolysis at 50 μM,horse erythrocytes,2 ± 0.1%
same,Percent hemolysis at 150 μM,horse erythrocytes,3 ± 0.2%
same,Percent hemolysis at 250 μM,horse erythrocytes,4 ± 0.9%
same,Percent hemolysis at 375 μM,horse erythrocytes,5 ± 0.3%
same,"tR (min), HPLC retention time (method B)",[2],5.89 min
same,"MIC, Pss",[3],6.2 to 12.5 µM
same,"MIC, Psa",[4],3.1 to 6.2 µM
same,"MIC, Xap",[5],3.1 to 6.2 µM
same,"MIC, Ea",[6],3.1 to 6.2 µM
same,"MIC, Xf",[7],1.6 to 3.1 µM
CCCC(=O)NCCCC[C@H](NC(=O)[C@H](CCCCN)NC(=O)[C@H](CC(C)C)NC(=O)[C@@H](NC(=O)[C@H](CCCCN)NC(=O)[C@H](CCCCN)NC(=O)[C@@H](Cc1ccccc1)NC(=O)[C@H](CC(C)C)NC(=O)[C@H](CCCCN)NC(=O)[C@H](CCCCN)NC(C)=O)[C@@H](C)CC)C(=O)N[C@@H](CC(C)C)C(=O)N[C@@H](Cc1ccc(O)cc1)C(=O)NCC(=O)N[C@H](C(=O)N[C@@H](Cc1c[nH]cn1)C(=O)N[C@H](C(=O)N[C@@H](Cc1c[nH]cn1)C(N)=O)[C@@H](C)O)[C@@H](C)CC [BP475-PIP1] (Ac-KKL[dF]KKILKK(Butyryl)LYGIHTH-NH2),Size of the lesions in infiltrated tobacco leaves at 50 μM,tobacco leaves,0.47 ± 0.06 cm
same,Size of the lesions in infiltrated tobacco leaves at 150 μM,tobacco leaves,1.40 ± 0.00 cm
same,Size of the lesions in infiltrated tobacco leaves at 250 μM,tobacco leaves,1.67 ± 0.13 cm
same,"MIC, Xav",[1],3.1 to 6.2 µM
same,Percent hemolysis at 50 μM,horse erythrocytes,9 ± 1.0%
same,Percent hemolysis at 150 μM,horse erythrocytes,18 ± 1.4%
same,Percent hemolysis at 250 μM,horse erythrocytes,26 ± 2.8%
same,Percent hemolysis at 375 μM,horse erythrocytes,39 ± 2.0%
same,"tR (min), HPLC retention time (method B)",[2],6.28 min
same,"MIC, Pss",[3],6.2 to 12.5 µM
same,"MIC, Psa",[4],1.6 to 3.1 µM
same,"MIC, Xap",[5],0.8 to 1.6 µM
same,"MIC, Ea",[6],3.1 to 6.2 µM
same,"MIC, Xf",[7],1.6 to 3.1 µM
H-KKVVFWVKFKFKLFKKILKVL-NH2 [KSLW-BP13],Size of the lesions in infiltrated tobacco leaves at 50 μM,tobacco leaves,0.52 ± 0.13 cm
same,Size of the lesions in infiltrated tobacco leaves at 150 μM,tobacco leaves,0.88 ± 0.15 cm
same,Size of the lesions in infiltrated tobacco leaves at 250 μM,tobacco leaves,1.07 ± 0.34 cm
same,"MIC, Xav",[1],3.1 to 6.2 µM
same,Percent hemolysis at 50 μM,horse erythrocytes,62 ± 8.2%
same,Percent hemolysis at 150 μM,horse erythrocytes,65 ± 5.9%
same,Percent hemolysis at 250 μM,horse erythrocytes,77 ± 12.9%
same,Percent hemolysis at 375 μM,horse erythrocytes,82 ± 10.4%
same,"tR (min), HPLC retention time (method B)",[2],6.26 min
same,"MIC, Pss",[3],25 to 50 µM
same,"MIC, Psa",[4],1.6 to 3.1 µM
same,"MIC, Xap",[5],1.6 to 3.1 µM
same,"MIC, Ea",[6],25 to 50 µM
same,"MIC, Xf",[7],1.6 to 3.1 µM
"Ac-KKLFKKIK(COC3H7)KYL-RINSAKDDAAGLQIA-OH [BP387-flg15, peptide conjugate, lipopeptide BP387 at N-terminus, flg15 at C-terminus]",Size of the lesions in infiltrated tobacco leaves at 50 μM,tobacco leaves,0.23 ± 0.24 cm
same,Size of the lesions in infiltrated tobacco leaves at 150 μM,tobacco leaves,0.33 ± 0.35 cm
same,Size of the lesions in infiltrated tobacco leaves at 250 μM,tobacco leaves,0.93 ± 0.40 cm
same,"MIC, Xav",[1],3.1 to 6.2 µM
same,Percent hemolysis at 50 μM,horse erythrocytes,3 ± 0.3%
same,Percent hemolysis at 150 μM,horse erythrocytes,5 ± 0.9%
same,Percent hemolysis at 250 μM,horse erythrocytes,7 ± 0.2%
same,Percent hemolysis at 375 μM,horse erythrocytes,9 ± 2.5%
same,"tR (min), HPLC retention time (method B)",[2],5.84 min
same,"MIC, Pss",[3],3.1 to 6.2 µM
same,"MIC, Psa",[4],6.2 to 12.5 µM
same,"MIC, Xap",[5],1.6 to 3.1 µM
same,"MIC, Ea",[6],25 to 50 µM
same,"MIC, Xf",[7],6.2 to 12.5 µM
